Measured values from patent US20210137964A1, “GLYCAN COMPOSITIONS AND METHODS OF USE” (KALEIDO BIOSCIENCES, INC., priority 2016, published 2021).

Assays:
Format in all cases: cell-based
Conditions in all cases: ex vivo 1% w/v fecal slurry from 12 subjects, glycan 0.5% w/v, 37° C., 18 hours, anaerobic
[1] = system: Firmicutes, Proteobacteria, and/or Actinobacteria; assay: Ex vivo fecal slurry assay, 16S rRNA sequencing (Example 11)
Source text: (§1) An ex vivo assay was designed to determine if glycans can be used to modulate a complex community of microorganisms and if the glycans produced consistent effects across communities obtained from multiple (twelve) subjects. Fecal samples and slurries were handled in an anaerobic chamber (AS-580, Anaerobe Systems) featuring a palladium catalyst. Glycans ara100, gal100, glu60man40, glu100, glu50gal50, gal33man33ara33, man75gal25, glu33gal33man34, glu33gal33Ara33, man100, man52glu29gal19 and commercially available glycans lactulose (Alfa Aesar) and FOS (Nutraflora FOS; NOW Foods, Bloomingdale Ill.) were included in the study. The fecal sample donations obtained from 12 subjects were stored at −80° C. To prepare working stocks the fecal samples were transferred into the anaerobic chamber and allowed to thaw.

[2] = system: Actinobacteria and/or Coriobacteriaceae/Gordonibacter; assay: Ex vivo fecal slurry assay, 16S rRNA sequencing (Example 13)
Source text: as §1

[3] = system: Enterococcaceae/Enterococcus and/or Bifidobacteriaceae/Bifidobacterium; assay: Ex vivo fecal slurry assay, 16S rRNA sequencing (Example 15)
Source text: as §1

[4] = system: Enterobacteriaceae/Escherichia/Shigella microbes; assay: Ex vivo fecal slurry assay, 16S rRNA sequencing (Example 17)
Source text: as §1

[5] = system: Enterococcaceae/Enterococcus and/or Enterobacteriaceae/Escherichia/Shigella microbes; assay: Ex vivo fecal slurry assay, 16S rRNA sequencing (Example 18)
Source text: as §1

[6] = system: Enterobacteriales/Enterobacteriaceae microbes; assay: Ex vivo fecal slurry assay, 16S rRNA sequencing (Example 19)
Source text: as §1

[7] = system: Ruminococcaceae/Ruminococcus microbes; assay: Ex vivo fecal slurry assay, 16S rRNA sequencing (Example 21)
Source text: as §1

OC[C@H]1O[C@@H](O[C@@H]2[C@@H](CO)OC(O)(CO)[C@H]2O)[C@H](O)[C@@H](O)[C@H]1O (mixture of isomers) [lactulose]
decrease: levels of Firmicutes, Proteobacteria, and/or Actinobacteria [1] | levels of Actinobacteria and/or Coriobacteriaceae/Gordonibacter [2] | levels of Enterobacteriaceae/Escherichia/Shigella microbes [4] | levels of Enterococcaceae/Enterococcus and/or Enterobacteriaceae/Escherichia/Shigella microbes [5] | levels of Enterobacteriales/Enterobacteriaceae microbes [6] | levels of Ruminococcaceae/Ruminococcus microbes [7]
increase: levels Enterococcaceae/Enterococcus and/or Bifidobacteriaceae/Bifidobacterium [3]
